Laboratory results from the NIST ThermoML archive (doi:10.1016/j.jct.2005.10.007).
Numbers after ± are expanded uncertainties.

Assay: mn = molality of the nth substance listed, in mol/kg
Conditions: 350 kPa, Liquid, Extra sensitive DSC

C[C@H](N)C(=O)O [(S)-2-aminopropanoic acid] + O
apparent molar heat capacity [J/K/mol]
Conditions	m1 = 0.0152	m1 = 0.0299	m1 = 0.05	m1 = 0.08	m1 = 0.1247	m1 = 0.2493	m1 = 0.5149	m1 = 1.002
278.15 K	107 ± 83	137 ± 42	101.3 ± 19	106 ± 12	107 ± 9.3	113.3 ± 4.7	122.6 ± 2.4	118.5 ± 1.4
283.15 K	119 ± 83	148 ± 42	113.2 ± 18	117.9 ± 12	118.8 ± 9	124.8 ± 4.6	133.2 ± 2.5	128.7 ± 1.4
288.15 K	131 ± 84	156 ± 43	123.3 ± 18	127.8 ± 12	128.9 ± 8.6	134.4 ± 4.5	142 ± 2.3	137.2 ± 1.4
293.15 K	143 ± 83	163 ± 42	131.5 ± 18	136 ± 11	137.4 ± 8.2	142.4 ± 4.2	149.5 ± 2.2	144.3 ± 1.3
298.15 K	152 ± 81	170 ± 42	138.2 ± 18	142.8 ± 11	144.2 ± 8.1	149.1 ± 4.2	155.6 ± 2.2	150.2 ± 1.3
303.15 K	158 ± 79	174 ± 42	143.9 ± 17	148.7 ± 11	150.3 ± 7.9	154.9 ± 4.1	160.8 ± 2.2	155.5 ± 1.3
308.15 K	163 ± 79	178 ± 40	148.9 ± 17	153.7 ± 11	155.4 ± 7.7	159.8 ± 4	165.3 ± 2.1	159.8 ± 1.3
313.15 K	169 ± 79	182 ± 40	153.6 ± 17	158 ± 11	159.9 ± 7.6	164.1 ± 4	169.3 ± 2.1	163.8 ± 1.3
318.15 K	172 ± 78	185 ± 40	157.3 ± 17	161.6 ± 11	163.9 ± 7.2	167.7 ± 3.8	172.6 ± 2	167.1 ± 1.2
323.15 K	175 ± 76	188 ± 38	160.9 ± 17	164.9 ± 11	167.3 ± 7	170.9 ± 3.7	175.5 ± 2	170 ± 1.2
328.15 K	178 ± 76	190 ± 38	163.7 ± 17	167.7 ± 10	170.3 ± 6.7	173.6 ± 3.6	178 ± 1.9	172.5 ± 1.2
333.15 K	181 ± 75	192 ± 38	166.4 ± 16	170.2 ± 10	173 ± 6.6	176.1 ± 3.5	180.3 ± 1.9	174.8 ± 1.2
